From US12721838B2 (Henry Ford Health System, priority 2020, dated 2026)
Entries after “also recorded” stand apart in the source; their conditions may differ.

These molecules were tested against T1, Trib2-Luciferase (Luc-Trib2) fusion (Homo sapiens, UniProt Q92519) (assay: not given). Conditions: 10 µM.
T1 sequence (Q92519 with tags, fused parts or gaps): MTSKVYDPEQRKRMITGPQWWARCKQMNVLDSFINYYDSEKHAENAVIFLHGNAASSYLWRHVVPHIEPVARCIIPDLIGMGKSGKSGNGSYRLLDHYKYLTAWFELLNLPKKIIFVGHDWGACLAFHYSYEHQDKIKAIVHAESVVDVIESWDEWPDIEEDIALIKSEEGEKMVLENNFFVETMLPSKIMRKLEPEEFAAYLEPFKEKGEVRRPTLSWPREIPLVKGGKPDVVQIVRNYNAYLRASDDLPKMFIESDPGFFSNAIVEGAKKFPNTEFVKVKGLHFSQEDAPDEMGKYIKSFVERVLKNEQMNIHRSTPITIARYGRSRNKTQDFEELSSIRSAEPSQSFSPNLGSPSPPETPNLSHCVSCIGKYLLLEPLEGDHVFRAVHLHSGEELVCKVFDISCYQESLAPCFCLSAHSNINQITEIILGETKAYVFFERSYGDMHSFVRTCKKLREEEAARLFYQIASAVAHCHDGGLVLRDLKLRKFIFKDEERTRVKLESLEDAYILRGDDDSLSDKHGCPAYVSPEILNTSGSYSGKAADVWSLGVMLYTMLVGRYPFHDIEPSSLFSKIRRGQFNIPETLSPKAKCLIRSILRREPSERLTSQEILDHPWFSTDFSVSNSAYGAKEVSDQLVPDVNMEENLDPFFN

Row | Molecule | Luciferase activity (%)
1 | Temsirolmus | 94%
2 | NS(=O)(=O)c1cc(Cl)c(Cl)c(S(N)(=O)=O)c1 [Dichlorphrnamide] | 100%
3 | CC[C@H]1[C@@H]2C[C@H]3[C@@H]4N(C)c5ccccc5[C@]45C[C@@H]([C@@H]2[C@H]5O)N3[C@@H]1O [Ajamaline] | 93%
4 | COC(=O)[C@H]1[C@H]2C[C@@H]3c4[nH]c5cc(OC)ccc5c4CCN3C[C@H]2C[C@@H](OC(=O)c2cc(OC)c(OC)c(OC)c2)[C@@H]1OC [Resperine] | 91%
5 | Niraparib tosylate | 93%

Same assay, conditions: 10 μM, 24 hours, HFF-Trib2-Luc cells

Row | Molecule | inhibition of Trib2-luciferase activity (in words)
6 | C[C@@H]1CCO[C@H]2Cn3cc(C(=O)NCc4ccc(F)cc4F)c(=O)c(O)c3C(=O)N12 [Dolutegravir] | completely ineffective; also recorded: not effective
7 | Nc1nc2c(ncn2CCC(CO)CO)c(=O)[nH]1 [Penciclovir] | not effective

Same assay, conditions: 10 μM, 24 hours; Trib2-Luciferase fusion construct-transfected HFF cells; […]

Row | Molecule | Luciferase activity (%)
8 | CC(=O)NCCCCCC(=O)O [6-Acetamidohexanoic] | 100%
9 | Nc1ccc(O)c(C(=O)O)c1 [5-Aminosalicyclic acid] | 84%

These molecules were tested against T1, Trib2-Luciferase (Luc-Trib2) fusion (assay: cell-based). Conditions: HFF, read-out: Luciferase activity (%).

Row | Molecule | activity at 10 µM
10 | C[C@@H]1CCO[C@H]2Cn3cc(C(=O)NCc4ccc(F)cc4F)c(=O)c(O)c3C(=O)N12 [Dolutegravir] | 100%
11 | CCCOc1ccc(S(=O)(=O)NCCC2CCCN2C)cc1-c1nc2c(CCC)nn(C)c2c(=O)[nH]1 (stereo not drawn) [Udenafil] | 100%
12 | Cc1cc(-c2ccccc2)nnc1NCCN1CCOCC1 [Minaprine] | 79%
13 | CN1C[C@@H]2C[C@H]1CN2c1cc2c(cc1F)c(=O)c(C(=O)O)cn2C1CC1 [Danofloxacin] | 81%
14 | O=c1[nH]c(=O)n(C2CCCO2)cc1F (stereo not drawn) [Tegafur] | 100%
15 | CCCOc1ccc(C(=O)OCCN(CC)CC)cc1N [Proparacaine] | 88%
16 | Cc1ccccc1C(=O)Nc1ccc(C(=O)N2CCCC(N(C)C)c3ccccc32)cc1 (stereo not drawn) [Mozavaptan] | 86%
17 | Cc1cccc(C)c1OCC(C)N (stereo not drawn) [Mexiletine] | 86%
18 | Nc1nc2c(ncn2CCC(CO)CO)c(=O)[nH]1 [Penciclovir] | 97%
19 | O=C1CN2Cc3c(ccc(Cl)c3Cl)N=C2N1 [Anagrelide] | 92%
20 | C=CCc1ccccc1OCC(O)CNC(C)C (stereo not drawn) [Alprenolol] | 91%
21 | CC1(C)CCC(C)(C)c2cc(NC(=O)c3ccc(C(=O)O)cc3)ccc21 [Tamibarotene] | 100%
22 | CCN(CC)C(=O)C1(c2ccccc2)CC1CN (stereo not drawn) [Milnacipran] | 85%
23 | Fc1ccc([C@@H]2CCNC[C@H]2COc2ccc3c(c2)OCO3)cc1 [Paroxetine] | 93%
24 | C[C@]12C=CC(=O)C=C1CC[C@H]1[C@@H]3C[C@@H](O)[C@](O)(C(=O)CO)[C@@]3(C)C[C@H](O)[C@@]12F [Triamcinolone] | 72%
25 | CCOC(=O)N[C@@H]1CC[C@@H]2[C@@H](C1)C[C@H]1C(=O)O[C@H](C)[C@H]1[C@H]2/C=C/c1ccc(-c2cccc(F)c2)cn1 [Vorapaxar] | 59%
26 | Cc1cn(-c2cc(NC(=O)c3ccc(C)c(Nc4nccc(-c5cccnc5)n4)c3)cc(C(F)(F)F)c2)cn1 [Nilotinib] | 99%
27 | C[C@@H](CN1CC(=O)NC(=O)C1)N1CC(=O)NC(=O)C1 [Dexrazoxane] | 100%
28 | N=C(N)NC(=O)Cc1c(Cl)cccc1Cl [Guanfacine] | 100%
29 | CCOC(=O)[C@@H](N)Cc1ccc(-c2cc(O[C@H](c3ccc(Cl)cc3-n3ccc(C)n3)C(F)(F)F)nc(N)n2)cc1 [Telotristat etiprate] | 94%

Row | Molecule | activity at 10 µM
30 | CN1C(=O)COc2c(C(=O)NC3CN4CCC3CC4)cc(Cl)cc21 (stereo not drawn) [Azasetron] | 100%
31 | Nc1nc(N)c2nc(-c3ccccc3)c(N)nc2n1 [Triamterene] | 100%
32 | Cc1c(OCC(F)(F)F)ccnc1C[S+]([O-])c1nc2ccccc2[nH]1 (stereo not drawn) [Lansoprazole] | 78%
33 | COc1cccc2c1C(=O)c1c(O)c3c(c(O)c1C2=O)C[C@@](O)(C(=O)CO)C[C@@H]3O[C@H]1C[C@H](N)[C@H](O)[C@H](C)O1 [Doxorubicin] | 28%
34 | CCOC(=O)c1cncn1[C@H](C)c1ccccc1 [Etomidate] | 100%
35 | CC1(C)CCC(CN2CCN(c3ccc(C(=O)NS(=O)(=O)c4ccc(NCC5CCOCC5)c([N+](=O)[O-])c4)c(Oc4cnc5[nH]ccc5c4)c3)CC2)=C(c2ccc(Cl)cc2)C1 [Venetoclax] | 184%
36 | Cc1ccc(C(=O)Nc2ccc(CN3CCN(C)CC3)c(C(F)(F)F)c2)cc1C#Cc1cnc2cccnn12 [Ponatinib] | 42%
37 | O=C(CCCN1CC=C(n2c(=O)[nH]c3ccccc32)CC1)c1ccc(F)cc1 [Droperidol] | 100%
38 | Cc1cn([C@@H]2C[C@@H](O)[C@H](CO)O2)c(=O)[nH]c1=O [Telbivudine] | 91%
39 | CC[C@H]1OC(=O)[C@H](C)[C@@H](O[C@H]2C[C@@](C)(OC)[C@@H](O)[C@H](C)O2)[C@H](C)[C@@H](O[C@@H]2O[C@H](C)C[C@H](N(C)C)[C@H]2O)[C@](C)(O)C[C@@H](C)[C@@H]2N[C@@H](COCCOC)O[C@H]([C@H]2C)[C@]1(C)O [Dirithromycin] | 100%
40 | Nc1ccc(S(=O)(=O)Nc2ncccn2)cc1 [Sulfadiazine] | 70%
41 | CN1[C@@H]2CC[C@H]1C[C@@H](OC(=O)C(CO)c1ccccc1)C2 (stereo partly drawn) [Atropine] | 67%
42 | CCOC(=O)CC(SP(=S)(OC)OC)C(=O)OCC (stereo not drawn) [Malathion] | 91%
43 | Cc1cnc(NC(=O)C2=C(O)c3ccccc3S(=O)(=O)N2C)s1 [Meloxicam] | 100%
44 | COc1cc(N)c(Cl)cc1C(=O)NC1CCN(Cc2ccccc2)CC1 [Clebopride] | 100%
45 | C[C@H]1c2cccc(O)c2C(=O)C2=C(O)[C@]3(O)C(=O)C(C(N)=O)=C(O)[C@@H](N(C)C)[C@@H]3[C@@H](O)[C@@H]21 [Doxycycline] | 91%
46 | CC1(C)S[C@@H]2[C@H](NC(=O)[C@H](C(=O)O)c3ccsc3)C(=O)N2[C@H]1C(=O)O [Ticarcillin] | 87%
47 | Cc1cccn2c(=O)c(-c3nnn[nH]3)cnc12 [Pemirolast] | 88%
48 | C[N+](C)(C)C[C@H](O)CC(=O)[O-] [Levocarnitine] | 84%
49 | O=C(Nc1ccc([N+](=O)[O-])cc1Cl)c1cc(Cl)ccc1O [Niclosamide] | 62%

Row | Molecule | activity at 10 µM
50 | CC(C)(Oc1ccc(Cl)cc1)C(=O)O [Clofibric acid] | 87%
51 | CC(C)OC(=O)C(C)(C)Oc1ccc(C(=O)c2ccc(Cl)cc2)cc1 [Fenofibrate] | 92%
52 | C[C@@](Cc1ccc(O)c(O)c1)(NN)C(=O)O [Carbidopa] | 92%
53 | O=C(O)c1cc(=O)c2c(OCC(O)COc3cccc4oc(C(=O)O)cc(=O)c34)cccc2o1 [Cromolyn] | 93%
54 | CC(=O)OCC(=O)[C@@]12OC(C)(C)O[C@@H]1C[C@H]1[C@@H]3C[C@H](F)C4=CC(=O)C=C[C@]4(C)[C@@]3(F)[C@@H](O)C[C@@]12C [Fluocinonide] | 78%
55 | CCC(=O)NCC[C@@H]1CCc2ccc3c(c21)CCO3 [Ramelteon] | 100%
56 | C[C@]12CC[C@@H]3c4ccc(O)cc4CC[C@H]3[C@@H]1CCC2=O [Estrone] | 82%
57 | CCc1c2c(nc3ccc(OC(=O)N4CCC(N5CCCCC5)CC4)cc13)-c1cc3c(c(=O)n1C2)COC(=O)[C@]3(O)CC [Irinotecan] | 85%
58 | CC(C)(C)c1nc(-c2cccc(NS(=O)(=O)c3c(F)cccc3F)c2F)c(-c2ccnc(N)n2)s1 [Dabrafenib] | 72%
59 | CC(C)C(=O)c1c(C(C)C)nn2ccccc12 [Ibudilast] | 85%
60 | CC(=O)OC(C)C[N+](C)(C)C (stereo not drawn) [Methacholine] | 99%
61 | CC[C@H]1OC(=O)[C@H](C)[C@@H](O[C@H]2C[C@@](C)(OC)[C@@H](O)[C@H](C)O2)[C@H](C)[C@@H](O[C@@H]2O[C@H](C)C[C@H](N(C)C)[C@H]2O)[C@](C)(OC)C[C@@H](C)C(=O)[C@H](C)[C@@H](O)[C@]1(C)O [Clarithromycin] | 97%
62 | OB1OCc2cc(F)ccc21 [Tavaborole] | 75%
63 | COc1ccc2c(c1OC)C(=O)O[C@@H]2[C@H]1c2c(cc3c(c2OC)OCO3)CCN1C [Noscapine] | 100%
64 | NC(N)=Nc1nc(CSCCC(N)=NS(N)(=O)=O)cs1 [Famotidine] | 100%
65 | CCCCCCCCc1ccc(CCC(N)(CO)CO)cc1 [Fingolimod] | 80%
66 | CN(C)c1cc(NC(=O)CNC(C)(C)C)c(O)c2c1C[C@H]1C[C@H]3[C@H](N(C)C)C(O)=C(C(N)=O)C(=O)[C@@]3(O)C(O)=C1C2=O [Tigecycline] | 63%
67 | CN(C)C(=O)Oc1ccc[n+](C)c1 [Pyridostigmine] | 76%
68 | CC1=C(C(=O)OCCN(Cc2ccccc2)c2ccccc2)C(c2cccc([N+](=O)[O-])c2)C(P2(=O)OCC(C)(C)CO2)=C(C)N1 (stereo not drawn) [Efonidipine] | 98%
69 | CN(C)CCCN1c2ccccc2CCc2ccccc21 [Imipramine] | 86%
